Source: US11484564B2, “Adhesion prevention material” (priority 2017, dated 2022)
Entries after “also recorded” stand apart in the source; their conditions may differ. Non-standard residues stand in square brackets, D forms with d. No end group written: not given here. Hyp = O=C(O)[C@@H]1C[C@@H](O)CN1

System: flexor digitorum profundus tendon
Assay: Evaluation of antiadhesive effect in cut and sutured flexor digitorum profundus tendon (adhesion score, 3 portions)
Format: in vivo, rabbit
Conditions: 0.15 mL, 2 weeks
Procedure: As supplied animals, 13-week old rabbits (Kbl: JW, male) were used. By the same procedure as in the above-described Test Example 1, anesthesia, hair removal, holding, and sterilization were performed. Next, the skin covering a metatarsus of the left hind limb was incised longitudinally under anesthesia to expose flexor tendons. Among the exposed flexor tendons, a flexor digitorum profundus tendon was cut by sharp dissection using a scalpel. Then, the dissected region of the flexor digitorum profundus tendon was sutured with a suture (trade name: “6-0 Prolene”, Ethicon, Inc.) by a modified Kessler technique, hemostasis and washing with physiological saline were performed. Then, test samples were administered to the exposed flexor digitorum profundus tendon and its surroundings. The test samples were administered as follows. […] Then, the incised portion was sutured with a suture (trade name: “5-0 suture with needle for clinical use”, Matsuda Ika Kogyo CO., LTD.). The rabbit was fed with an e-collar around the neck to prevent self-injurious behavior. At 2 weeks after administration of the test sample, the rabbit was painlessly sacrificed by an overdose of Somnopentil (a trade name “pentobarbital sodium”, Kyoritsu Seiyaku Corporation) by auricular vein administration. The operated site was incised again, and degrees of adhesion were evaluated according to the criteria with respect to the following three portions: between flexor digitorum profundus tendon and gliding floor, between flexor digitorum profundus tendon and flexor digitorum superficialis tendon, and between flexor digitorum profundus tendon and other surrounding tissues. The total of the scores of the three portions was designated as a score for the individual. <Evaluation Criteria> 0: No adhesion 1: Easily dissectable from surrounding tissues by blunt dissection 2: Dissectable from surrounding tissues by blunt dissection 3: Dissection from surrounding tissues requires slightly sharp dissection 4: Dissection from surrounding tissues requires completely sharp dissection

[1] = Test Example 5, peptide 30% by weight with crosslinked-gelatin sponge gel powder (B) 20% by weight
[2] = Test Example 6, peptide 30% by weight with gel powder (B) 20% by weight
[3] = Test Example 9, tripeptide 30% by weight with gel powder (B) 20% by weight
[4] = Test Example 7, peptide 30% by weight with gel powder (B) 20% by weight

Question: With “Gly-Ala-[Hyp] [tripeptide 2, reference compound]” as the substance, how does the antiadhesive effect [1] read?
Answer: the antiadhesive effect was inferior to the case in which peptide mixture 1 was used

Question: Pro-Hyp [dipeptide 1] was tested. Which antiadhesive effect [2] did it give?
Answer: contribute to the antiadhesive effect

Question: For “Gly-Pro [dipeptide 2, reference compound]”, which antiadhesive effect [2] is on record?
Answer: the antiadhesive effect was decreased

Question: For “Gly-Pro-Ala [tripeptide 3, reference compound]”, which antiadhesive effect [1] is on record?
Answer: the antiadhesive effect was inferior to the case in which peptide mixture 1 was used

Question: Which antiadhesive effect [3] does the source give for Tyr-Pro-[Hyp] [tripeptide 8] here?
Answer: antiadhesive effects were observed

Question: For Asn-Pro-[Hyp] [tripeptide 6], which antiadhesive effect [3] is on record?
Answer: antiadhesive effects were observed

Question: With Arg-Pro-[Hyp] [tripeptide 7] as the substance, how does the antiadhesive effect [3] read?
Answer: antiadhesive effects were observed

Question: For (Gly-Pro-Hyp)10 [polypeptide 1], which antiadhesive effect [4] is on record?
Answer: antiadhesive effects were observed; also recorded: lower than those in tripeptide 4 and oligopeptide 1

Question: How did the antiadhesive effect [3] turn out when Ile-Pro-[Hyp] [tripeptide 5] was run?
Answer: antiadhesive effects were observed

Question: With (Gly-Pro-Hyp)5 [oligopeptide 1] as the substance, how does the antiadhesive effect [4] read?
Answer: antiadhesive effects were observed

Question: With Gly-Pro-[Hyp] [tripeptide 4] as the substance, how does the antiadhesive effect [1] read?
Answer: the same antiadhesive effect as in the case in which both peptide mixture 1 and the crosslinked-gelatin sponge gel were administered was observed

Question: What about the antiadhesive effect [2] of the same substance?
Answer: contribute to the antiadhesive effect

Question: And the antiadhesive effect [4]?
Answer: antiadhesive effects were observed

Question: And the antiadhesive effect [3]?
Answer: antiadhesive effects were observed
